Reference: ChEMBL document CHEMBL1152845, “Synthesis, cytotoxicity and apoptosis of naphthalimide polyamine conjugates as antitumor agents” (Eur J Med Chem, 2009)
Blank lines part the entries; values can stand above or below the compound they belong to. The source made the active and inactive calls. The calls are words filed in the database; no cut-off is given here.

How the values were obtained:
B16 [1] = assay: Cytotoxicity against mouse B16 cells after 48 hrs by MTT assay; type: functional, cell-based; conditions: B16, 48 h
K562 = assay: Cytotoxicity against human K562 cells after 48 hrs by MTT assay; type: functional, cell-based; conditions: K562, 48 h
CHO = assay: Cytotoxicity against CHO cells after 48 hrs by MTT assay; type: cell-based; conditions: Cricetulus griseus
B16 [2] = assay: Induction of apoptosis in mouse B16 cells assessed as increase in Bax level after 48 hrs by Western blot relative to control; type: functional, cell-based
B16 [3] = assay: Cell cycle arrest in mouse B16 cells by accumulation at G2/M phase at 0.5 uM after 48 hrs by flow cytometry; type: functional
B16 [4] = assay: Induction of apoptosis in mouse B16 cells assessed as increase in caspase-8 cleavage after 48 hrs by Western blot relative to control; type: functional, cell-based
B16 [5] = assay: Cell cycle arrest in mouse B16 cells by accumulation at S phase at 2.0 uM after 48 hrs by flow cytometry; type: functional
B16 [6] = assay: Cell cycle arrest in mouse B16 cells by accumulation at G2/M phase at 2.0 uM after 48 hrs by flow cytometry; type: functional
B16 [7] = assay: Induction of apoptosis in mouse B16 cells assessed as increase in caspase-9 cleavage after 48 hrs by Western blot relative to control; type: functional, cell-based
B16 [8] = assay: Cell cycle arrest in mouse B16 cells by accumulation at G0/G1 phase at 2.0 uM after 48 hrs by flow cytometry; type: functional
B16 [9] = assay: Induction of apoptosis in mouse B16 cells assessed as sub-G1 DNA content at 0.5 uM after 48 hrs by flow cytometry; type: functional
B16 [10] = assay: Induction of apoptosis in mouse B16 cells assessed as increase in caspase-3 cleavage after 48 hrs by Western blot relative to control; type: functional, cell-based
B16 [11] = assay: Cell cycle arrest in mouse B16 cells by accumulation at G0/G1 phase at 0.5 uM after 48 hrs by flow cytometry; type: functional
B16 [12] = assay: Cell cycle arrest in mouse B16 cells by accumulation at G2/M phase at 1.0 uM after 48 hrs by flow cytometry; type: functional
B16 [13] = assay: Induction of apoptosis in mouse B16 cells assessed as sub-G1 DNA content at 1.0 uM after 48 hrs by flow cytometry; type: functional
B16 [14] = assay: Induction of apoptosis in mouse B16 cells assessed as sub-G1 DNA content at 2.0 uM after 48 hrs by flow cytometry; type: functional
Calf thymus DNA = assay: Binding affinity to calf thymus DNA at 80 uM by spectrophotometry; type: nucleic-acid assay; conditions: Bos taurus
B16 [15] = assay: Cell cycle arrest in mouse B16 cells by accumulation at S phase at 0.5 uM after 48 hrs by flow cytometry; type: functional
[16] = Cytotoxicity against human QSG7701 cells after 48 hrs by MTT assay; type: cell-based; conditions: QSG7701, 48 h
Bel-7402 = assay: Cytotoxicity against human Bel7402 cells after 48 hrs by MTT assay; type: functional, cell-based; conditions: Bel-7402, 48 h
B16 [17] = assay: Cell cycle arrest in mouse B16 cells by accumulation at G0/G1 phase at 1.0 uM after 48 hrs by flow cytometry; type: functional
B16 [18] = assay: Cell cycle arrest in mouse B16 cells by accumulation at S phase at 1.0 uM after 48 hrs by flow cytometry; type: functional
B16 [19] = assay: Induction of apoptosis in mouse B16 cells assessed as increase in mitochondrial cytochrome-C release after 48 hrs by Western blot relative to control; type: functional, cell-based
B16 [20] = assay: Induction of apoptosis in mouse B16 cells assessed as reduction in Bcl2 level after 48 hrs by Western blot relative to control; type: functional, cell-based
[21] = Cytotoxicity against mouse Mel-A cells after 48 hrs by MTT assay; type: cell-based

Compound: NCCCCNCCCCNCCCN1C(=O)c2cccc3cccc(c23)C1=O
- IC50 (B16 [1]): 5.36 µM
- IC50 (K562): 9.08 µM
- IC50 (CHO): 9.09 µM

Compound: NCCCNCCCCN1C(=O)c2cccc3cccc(c23)C1=O
- IC50 (B16 [1]): 13.9 µM
- IC50 (K562): 11.4 µM
- IC50 (CHO): 20.7 µM

Compound: NCCCNCCCCNCCCCN1C(=O)c2cccc3cccc(c23)C1=O
- IC50 (B16 [1]): 2.7 µM
- IC50 (K562): 3.84 µM
- IC50 (CHO): 3.43 µM

- Activity (Calf thymus DNA): Active
Compound: Cl.NCCCCNCCCCNCCCCN1C(=O)c2cccc3cccc(c23)C1=O
- Activity (B16 [2]): Active
- Activity (B16 [3]): 18.52%
- Activity (B16 [4]): Dose-dependent effect
- Activity (B16 [5]): 7.34%
- Activity (B16 [6]): 34.19%
- Activity (B16 [7]): Dose-dependent effect
- Activity (B16 [8]): 58.47%
- Activity (B16 [9]): 9.68%
- Activity (B16 [10]): Dose-dependent effect
- Activity (B16 [11]): 69.78%
- Activity (B16 [12]): 24.91%
- IC50 (B16 [1]): 0.69 µM
- Activity (B16 [13]): 16.84%
- Activity (B16 [14]): 38.63%
- Activity (B16 [15]): 11.7%
- IC50 (K562): 1.16 µM
- IC50 [16]: > 50 µM
- IC50 (Bel-7402): 3.56 µM
- Activity (B16 [17]): 65.38%
- Activity (B16 [18]): 9.71%
- Activity (B16 [19]): Active
- Activity (B16 [20]): Active
- IC50 (CHO): 2.58 µM

Compound: O=C1NC(=O)c2cccc3cccc1c23
- IC50 (B16 [1]): > 50 µM
- IC50 (K562): > 50 µM
- IC50 (CHO): > 50 µM

Compound: NCCCCNCCCCNCc1c2ccccc2cc2ccccc12
- IC50 [21]: 8.3 µM
- IC50 (B16 [1]): 1.4 µM
- IC50 (K562): 0.95 µM
- IC50 (CHO): 1.25 µM

Compound: NCCCNCCCCNCCCN1C(=O)c2cccc3cccc(c23)C1=O
- IC50 (B16 [1]): 0.62 µM
- IC50 (K562): 1.64 µM
- IC50 [16]: > 50 µM
- IC50 (Bel-7402): 1.06 µM
- IC50 (CHO): 1.21 µM
